Patent US20190388406A1, “METHODS OF PREVENTION AND TREATMENT OF THROMBOSIS” (Portola Pharmaceuticals, Inc., priority 2018, published 2019)

Experiments:
[1] = Exposure of betrixaban on co-administration with a Pgp inhibitor; type: in vivo; settings: concomitant Pgp inhibitor
[2] = tested on: non-critically ill patients; assay: Occurrence of VTE in non-critically ill patients; type: in vivo, human
Description: (§1) A multi-center, double-blind, randomized controlled trial enrolled 7,513 patients hospitalized for an acute medical illness with the following eligibility criteria: (1) hospitalization for acute medical illness, including heart failure, respiratory failure, infection, ischemic stroke, or rheumatic disorder; (2) age≥75 years, age 60 to 74 years with D-dimer≥2×the upper limit of normal (ULN), or age 40 to 59 years with D-dimer≥2×ULN and history of VTE or cancer; (3) anticipated severe immobilization for ≥24 hours followed by moderate or severe immobilization for 3 or more days; and (4) anticipated hospitalization for 3 or more days. […]
(§2) Baseline characteristics of study participants were compared between treatment arms using the chi-squared test for categorical variables and one-way analysis of variance (ANOVA) for continuous variables, respectively. We analyzed efficacy using a modified intention-to-treat (mITT) population, which included subjects who received at least one dose of study medication and had data on one or more of the efficacy components. The bleeding risk of thromboprophylaxis was analyzed with the actual regimen received in the safety population, which included all randomized patients who received at least one dose of study medication. […] Absolute risk difference and relative risk of betrixaban vs. enoxaparin group were calculated and compared using the chi-squared test. […]

[3] = tested on: critically ill patients admitted to the intensive care unit (ICU); assay: Occurrence of VTE in critically ill (ICU) patients, post hoc analysis of randomized trial; type: in vivo, human
Description: (§3) A multi-center, double-blind, randomized controlled trial enrolled 7,513 patients hospitalized for an acute medical illness with the following eligibility criteria: (1) hospitalization for acute medical illness, including heart failure, respiratory failure, infection, ischemic stroke, or rheumatic disorder; (2) age≥75 years, age 60 to 74 years with D-dimer≥2×the upper limit of normal (ULN), or age 40 to 59 years with D-dimer≥2×ULN and history of VTE or cancer; (3) anticipated severe immobilization for ≥24 hours followed by moderate or severe immobilization for 3 or more days; and (4) anticipated hospitalization for 3 or more days. Patients were randomly allocated in a 1:1 ratio to extended-duration betrixaban (35 to 42 days) or standard-duration enoxaparin (10±4 days).
(§4) The present study is a post hoc analysis of the effect of betrixaban in critically ill patients admitted to the intensive care unit (ICU) during the index hospitalization and received extended-duration betrixaban. The study population included in the present analysis was subjects admitted to the ICU during the index hospitalization event.
(§5) The primary efficacy endpoint was the occurrence of VTE, defined as a composite of asymptomatic proximal DVT, symptomatic DVT, non-fatal pulmonary embolism (PE), or VTE-related mortality. Safety endpoints were the occurrence of major bleeding and clinically relevant non-major bleeding, defined according to the International Society on Thrombosis and Haemostasis (ISTH) criteria. (Schulman S, Kearon C, Subcommittee on Control of Anticoagulation of the S, Standardization Committee of the International Society on T, Haemostasis. Definition of major bleeding in clinical investigations of antihemostatic medicinal products in non-surgical patients. J Thromb Haemost. 2005; 3:692-694; and Kaatz S, Ahmad D, Spyropoulos AC, Schulman S, Subcommittee on Control of A. Definition of clinically relevant non-major bleeding in studies of anticoagulants in atrial fibrillation and venous thromboembolic disease in non-surgical patients: communication from the SSC of the ISTH. J Thromb Haemost. 2015; 13:2119-2126.) All events were adjudicated by an independent clinical events committee blinded to thromboprophylaxis allocation.
(§6) Baseline characteristics of study participants were compared between treatment arms using the chi-squared test for categorical variables and one-way analysis of variance (ANOVA) for continuous variables, respectively. We analyzed efficacy using a modified intention-to-treat (mITT) population, which included subjects who received at least one dose of study medication and had data on one or more of the efficacy components. The bleeding risk of thromboprophylaxis was analyzed with the actual regimen received in the safety population, which included all randomized patients who received at least one dose of study medication. […] Absolute risk difference and relative risk of betrixaban vs. enoxaparin group were calculated and compared using the chi-squared test. The Breslow-Day test of homogeneity was performed to assess the effect modification by ICU admission on the thromboprophylaxis. All analyses were performed using two-sided tests at a significance level of 0.05 with SAS software version 9.4 (SAS Institute, Inc., North Carolina, United States).

[4] = tested on: non-critically ill patients; assay: Occurrence of major bleeding in non-critically ill patients; type: in vivo
Description: as §1, §2

[5] = tested on: critically ill patients admitted to the intensive care unit (ICU); assay: Occurrence of major or clinically relevant non-major bleeding (ISTH) in critically ill (ICU) patients; type: in vivo
Description: as §3, §4, §5, §6

[6] = tested on: critically ill patients admitted to the intensive care unit (ICU); assay: Occurrence of major bleeding (ISTH) in critically ill (ICU) patients; type: in vivo
Description: as §3, §4, §5, §6

[7] = full-dose stratum (betrixaban 80 mg daily vs. enoxaparin 40 mg daily), end of study through 77 days
[8] = full-dose stratum (betrixaban 80 mg daily vs. enoxaparin 40 mg daily), end of study through 77 days, listed as betrixaban
[9] = full-dose stratum (betrixaban 80 mg daily vs. enoxaparin 40 mg daily), through 42 days
[10] = full-dose stratum, through 42 days
[11] = full-dose stratum, through 77 days
[12] = mITT population, end of extended thromboprophylaxis through 42 days
[13] = mITT population, end of study through 77 days
[14] = mITT population, through 42 days
[15] = mITT population, through 77 days
[16] = full-dose stratum (betrixaban 80 mg daily vs. enoxaparin 40 mg daily), through 7 days after discontinuation
[17] = full-dose stratum (betrixaban 80 mg daily vs. enoxaparin 40 mg daily), through 7 days after discontinuation, listed as betrixaban
[18] = full-dose stratum, through 7 days after discontinuation
[19] = safety population, end of study through 77 days
[20] = safety population, end of study through 77 days, listed as betrixaban
[21] = safety population, through 7 days after discontinuation
[22] = safety population, through 7 days after discontinuation of study medication
[23] = safety population, through 7 days after discontinuation of study medication, listed as betrixaban
[24] = safety population, through 77 days

Compound: COc1ccc(NC(=O)c2ccc(C(=N)N(C)C)cc2)c(C(=O)Nc2ccc(Cl)cn2)c1 [Betrixaban, N-(5-chloropyridin-2-yl)-2-(4-(N,N-dimethylcarbamimidoyl)benzamido)-5-methoxybenzamide]
- effect of Pgp inhibitor on exposure of betrixaban [1]: increases the exposure
- reduction of VTE risk ([2]; end of extended thromboprophylaxis): 23%
- reduction of VTE risk ([2]; end of study): 24%
- reduction of the risk of VTE compared with enoxaparin ([3]; critically ill patients, end of extended thromboprophylaxis through 42 days): 46%
- relative risk reduction of VTE compared with enoxaparin ([3]; critically ill patients, end of study through 77 days): 52%
- risk reduction in the VTE components (asymptomatic proximal DVT, symptomatic DVT, non-fatal PE, VTE-related death) ([3]; critically ill patients, vs. enoxaparin): did not reach statistical difference
- VTE events / patients (n/N) [3, 7]: 9/214
- risk of VTE (rate) [3, 7]: (4.21%)
- risk of VTE (rate) [3, 8]: 4.21%
- VTE events / patients (n/N) [3, 9]: 9/271
- risk of VTE (rate) [3, 9]: (3.32%)
- risk of VTE (rate) ([3]; full-dose stratum (betrixaban 80 mg daily vs. enoxaparin 40 mg daily), through 42 days, listed as betrixaban): 3.32%
- VTE ARD (absolute risk difference) betrixaban vs. enoxaparin [3, 10]: −5.01%
- VTE NNT or NNH [3, 10]: 20
- VTE RR (relative risk) betrixaban vs. enoxaparin [3, 10]: 0.40
- VTE ARD (absolute risk difference) betrixaban vs. enoxaparin [3, 11]: −7.20%
- VTE NNT or NNH [3, 11]: 14
- VTE RR (relative risk) betrixaban vs. enoxaparin [3, 11]: 0.37
- VTE events / patients (n/N) [3, 12]: 15/351
- risk of VTE (rate) [3, 12]: (4.27%)
- risk of VTE (rate) ([3]; mITT population, end of extended thromboprophylaxis through 42 days, listed as betrixaban): 4.27%
- VTE events / patients (n/N) [3, 13]: 15/286
- risk of VTE (rate) [3, 13]: (5.24%)
- risk of VTE (rate) ([3]; mITT population, end of study through 77 days, listed as betrixaban): 5.24%
- VTE ARD (absolute risk difference) betrixaban vs. enoxaparin [3, 14]: −3.68%
- VTE NNT or NNH [3, 14]: 28
- VTE RR (relative risk) betrixaban vs. enoxaparin [3, 14]: 0.54
- VTE ARD (absolute risk difference) betrixaban vs. enoxaparin [3, 15]: −5.63%
- VTE NNT or NNH [3, 15]: 18
- VTE RR (relative risk) betrixaban vs. enoxaparin [3, 15]: 0.48
- rates of major bleeding, betrixaban vs. enoxaparin [4]: no difference
- major or clinically relevant non-major bleeding events / patients (n/N) [5, 7]: 11/271
- risk of major or clinically relevant non-major bleeding (rate) [5, 7]: (4.06%)
- risk of major or clinically relevant non-major bleeding (rate) [5, 8]: 4.06%
- major or clinically relevant non-major bleeding events / patients (n/N) [5, 16]: 9/271
- risk of major or clinically relevant non-major bleeding (rate) [5, 16]: (3.32%)
- risk of major or clinically relevant non-major bleeding (rate) [5, 17]: 3.32%
- major or clinically relevant non-major bleeding ARD betrixaban vs. enoxaparin [5, 18]: −0.30%
- major or clinically relevant non-major bleeding RR betrixaban vs. enoxaparin [5, 18]: 0.92
- major or clinically relevant non-major bleeding ARD betrixaban vs. enoxaparin [5, 11]: 0.07%
- major or clinically relevant non-major bleeding RR betrixaban vs. enoxaparin [5, 11]: 1.02
- major or clinically relevant non-major bleeding events / patients (n/N) [5, 19]: 15/351
- risk of major or clinically relevant non-major bleeding (rate) [5, 19]: (4.27%)
- risk of major or clinically relevant non-major bleeding (rate) [5, 20]: 4.27%
- major or clinically relevant non-major bleeding ARD betrixaban vs. enoxaparin [5, 21]: 0.29%
- major or clinically relevant non-major bleeding RR betrixaban vs. enoxaparin [5, 21]: 1.09
- major or clinically relevant non-major bleeding events / patients (n/N) [5, 22]: 13/351
- risk of major or clinically relevant non-major bleeding (rate) [5, 22]: (3.70%)
- risk of major or clinically relevant non-major bleeding (rate) [5, 23]: 3.70%
- major or clinically relevant non-major bleeding ARD betrixaban vs. enoxaparin [5, 24]: 0.58%
- major or clinically relevant non-major bleeding RR betrixaban vs. enoxaparin [5, 24]: 1.16
- major bleeding events / patients (n/N) [6, 7]: 1/271
- risk of major bleeding (rate) [6, 7]: (0.37%)
- risk of major bleeding (rate) [6, 8]: 0.37%
- major bleeding events / patients (n/N) [6, 16]: 0/271
- risk of major bleeding (rate) [6, 16]: (0.00%)
- risk of major bleeding (rate) [6, 17]: 0.00%
- major bleeding ARD betrixaban vs. enoxaparin [6, 18]: −3.26%
- major bleeding NNT or NNH [6, 18]: 31
- major bleeding ARD betrixaban vs. enoxaparin [6, 11]: −3.25%
- major bleeding NNT or NNH [6, 11]: 31
- major bleeding RR betrixaban vs. enoxaparin [6, 11]: 0.10
- major bleeding events / patients (n/N) [6, 19]: 5/351
- risk of major bleeding (rate) [6, 19]: (1.42%)
- risk of major bleeding (rate) [6, 20]: 1.42%
- major bleeding ARD betrixaban vs. enoxaparin [6, 21]: −1.99%
- major bleeding RR betrixaban vs. enoxaparin [6, 21]: 0.36
- major bleeding events / patients (n/N) [6, 22]: 4/351
- risk of major bleeding (rate) [6, 22]: (1.14%)
- risk of major bleeding (rate) [6, 23]: 1.14%
- major bleeding ARD betrixaban vs. enoxaparin [6, 24]: −1.98%
- major bleeding RR betrixaban vs. enoxaparin [6, 24]: 0.42

Compound: Enoxaparin [reference compound]
- VTE events / patients (n/N) [3, 7]: 26/228
- risk of VTE (rate) [3, 7]: (11.40%)
- risk of VTE (rate) ([3]; full-dose stratum (betrixaban 80 mg daily vs. enoxaparin 40 mg daily), end of study through 77 days, listed as enoxaparin): 11.40%
- VTE events / patients (n/N) [3, 9]: 23/276
- risk of VTE (rate) [3, 9]: (8.33%)
- risk of VTE (rate) ([3]; full-dose stratum (betrixaban 80 mg daily vs. enoxaparin 40 mg daily), through 42 days, listed as enoxaparin): 8.33%
- VTE events / patients (n/N) [3, 12]: 28/352
- risk of VTE (rate) [3, 12]: (7.95%)
- risk of VTE (rate) ([3]; mITT population, end of extended thromboprophylaxis through 42 days, listed as enoxaparin): 7.95%
- VTE events / patients (n/N) [3, 13]: 31/285
- risk of VTE (rate) [3, 13]: (10.88%)
- risk of VTE (rate) ([3]; mITT population, end of study through 77 days, listed as enoxaparin): 10.88%
